# Experimental data as given in publication PMC11434613, “The Remarkable and Selective In Vitro Cytotoxicity of Synthesized Bola-Amphiphilic Nanovesicles on Etoposide-Sensitive and -Resistant Neuroblastoma Cells” (Nanomaterials, 2024).
# Several values for one entry are separate records, joined by “and”; a condition that tells them apart may be missing. Equal entries are not always repeated.
# Columns and labels:
# [1] = test system: HepG2 cells; design: method as in earlier work; conditions: MTT test; Table S1, previously assessed characteristics; cited from earlier work
# [2] = test system: Cos-7 cells; design: method as in earlier work; conditions: MTT test; Table S1, previously assessed characteristics; cited from earlier work
# [3] = test system: HepG2 cells; experiment: LDH cytotoxicity assay on HepG2 cells; type: cell-based; conditions: LDH test; 24 h
# Procedure: To assess the cytotoxicity properties of BPPB, the lactate dehydrogenase (LDH) cytotoxicity assay (Abcam, Cat#ab102526) was performed, following manufacturer’s protocol, as previously described. This time, the increasing concentrations of BPPB were in the range 0.4–85.3 µM.
# (§1) In this study, the cytotoxicity profile of BPPB was assessed in both immortalized human liver cells (HepG2) cells, as in our previous works, and in transformed African green monkey kidney fibroblast cells (Cos-7), as reported in a recent paper. Specifically, we evaluated the cytotoxicity of BPPB by carrying out both the MTT proliferation assay and the lactate dehydrogenase (LHD) cytotoxicity assay, which measures the LDH activity as an indicator of cell death. Both cell lines were exposed for 24 h to increasing concentrations of BPPB (0.4–85.3 µM). Growth inhibition/death were determined by the MTT test, while cell cytotoxicity was determined by LDH assay, with respect to untreated control cells. Results are reported as bar graphs in Figure 8 and as dispersion graphs in Figures S13 and S14 in Supplementary Materials (Section S2).
# [4] = MTT cytotoxicity assay on HepG2 cells; type: cell-based, human; conditions: human
# Procedure: (§2) To assess the cytotoxicity properties of BPPB, the MTT (3-(4,5-dimethylthiazol-2-yl)-2,5-diphenyltetrazolium bromide) cell proliferation assay (Abcam, Prodotti Gianni s.r.l., Milano, Italy, Cat#ab2011091) was performed, following the manufacturer’s protocol, as previously reported. This time, the increasing concentrations of BPPB were in the range of 0.4–85.3 µM. The cell survival rate, expressed as cell viability percentage (%), was evaluated based on the experimental outputs of treated groups vs. the untreated groups (CTR) and was calculated as follows: cell viability (%) = (OD treated cells − OD blank)/(OD untreated cells − OD blank) × 100%.
# as §1
# [5] = test system: HepG2 cells; experiment: MTT cytotoxicity assay on HepG2 cells; type: cell-based, human; conditions: for IC50: MTT, concentration range 0.4–85.3 µM
# Procedure: as §2, §1
# [6] = test system: HTLA-230 human stage-IV NB cells; experiment: Cell viability assay (CellTiter 96 AQueous One Solution) on HTLA-230 NB cells; type: cell-based; conditions: for viability at 0.5 µM: series 0.5–50 µM
# From the text: HTLA-230 human stage-IV NB cells were kindly provided by Dr. L. Raffaghello (G. Gaslini Institute, Genoa, Italy). The HTLA-ER cells were selected by treating HTLA-230 parental cells for six months with increasing concentrations of etoposide, as previously reported. Both cell populations were maintained in RPMI 1640 medium (Euroclone Spa, Pavia, Italy) supplemented with 10% fetal bovine serum (FBS, Euroclone Spa, Pavia, Italy), 1% L-glutamine (Euroclone Spa, Pavia, Italy), and 1% Penicillin/Streptomicin (Euroclone Spa, Pavia, Italy) and grown in standard conditions (37 °C humidified incubator with 5% CO2).
# To determine the cytotoxic effects of BPPB, in vitro time- and dose-dependent experiments were carried out. Cells were first treated for 24, 48, and 72 h, with increasing concentrations (0.5–50 µM) of the compound. In a subsequent series of the experiments, cells were treated for 24, 48, and 72 h with increasing concentration of BPPB in the range of 0.1–2 µM. […] Cell cultures were carefully monitored before and during the experiments to ensure optimal cell density.
# Cell viability was determined by using the CellTiter 96® AQueous One Solution Cell Proliferation Assay (Promega, Madison, WI, USA), as previously described. Briefly, cells (10,000 cells/well) were seeded into 96-well plates (Corning Incorporated, Corning, NY, USA) and then treated. Next, cells were incubated with 20 µL of CellTiter, and the absorbance at 490 nm was recorded using a microplate reader (EL-808, BIO-TEK Instruments Inc., Winooski, VT, USA). IC50 was evaluated by GraphPad Prism 5.4.2 Software (GraphPad Software, Boston, MA, USA).
# Results are expressed as the means ± S.D. of at least four independent experiments in which six different wells were analyzed every time for each experimental condition. The statistical significance of differences was determined by two-way analysis of variances (ANOVA) followed by Tukey’s multicomparison test using GraphPad Prism 8.0 (GraphPad Software v8.0, San Diego, CA, USA); p < 0.05 was considered statistically significant. Asterisks or other indicators (see Figures captions) indicate the following p-value ranges: p > 0.05 no symbols, * = p < 0.05, ** = p < 0.01, *** = p < 0.001, **** = p < 0.0001.
compound,measurement,setting,value
"c1ccc([P+](CCCCCCCCCCCC[P+](c2ccccc2)(c2ccccc2)c2ccccc2)(c2ccccc2)c2ccccc2)cc1 [BPPB, 1,1-(1,12-dodecanediyl)bis [1,1, 1]-triphenylphosphonium di-bromide]",IC50 HepG2 cell,[1],11.31 ± 1.54 µg/mL
same,IC50 COS-7 cell,[2],5.76 ± 0.95 µg/mL
same,Concentrations with a safety profile toward HepG2,[3],≤ 8.5 µM
same,viability at 24 h,"[4]; HepG2 cells, 8.5 µM and 4.3 µM, which value belongs to which concentration is not stated, read-out: Cell viability HepG2 (MTT)",64.5%
same,selectivity ratio at 24 h,[4]; read-out: Selectivity index (SI) = IC50 HepG2 / IC50 HTLA-ER,8.7
same,Selectivity index (SI) = IC50 HepG2 / IC50 HTLA-230,[5]; 24 h,40.6 and 40.63
same,Selectivity index (SI) = IC50 HepG2 / IC50 HTLA-ER,[5]; 24 h,8.68
same,IC50,[5]; 24 h,9.64 ± 1.31 µM
same,IC50,"[5]; Homo sapiens, HepG2, 24 h",9.6 µM
same,Concentrations with a safety profile toward HepG2,"[5]; MTT test, 24 h",≤ 8.5 µM
same,Cell viability HTLA-230,"[6]; 24 h, concentration at which hemolysis was inexistent (concentration not stated)",18.2%
same,IC50,"[6]; 24 h exposure, refined concentration range 0.1–2 µM",240 nM and 238 nM
same,"Viable cells, both NB cell populations","[6]; 24 h treatment, HTLA-230 and HTLA-ER, concentrations leaving more than 98% of RBCs alive",14–18%
same,IC50,"[6]; Homo sapiens, HTLA-230, 24 h, 24 h exposure, concentration range 0.5–50 µM",738 ± 546 nM
same,IC50,"[6]; Homo sapiens, HTLA-230, 24 h, 24 h exposure, refined concentration range 0.1–2 µM",200 nM
same,IC50,"[6]; Homo sapiens, HTLA-230, 48 h, 48 h exposure, concentration range 0.5–50 µM",590 ± 445 nM
same,IC50,"[6]; Homo sapiens, HTLA-230, 48 h, 48 h exposure, refined concentration range 0.1–2 µM",196 ± 21.1 nM
same,IC50,"[6]; Homo sapiens, HTLA-230, 72 h, 72 h exposure, concentration range 0.5–50 µM",203 ± 178 nM
same,IC50,"[6]; Homo sapiens, HTLA-230, 72 h, 72 h exposure, refined concentration range 0.1–2 µM",228 ± 17.6 nM
same,viability at 0.25 µM,"[6]; Homo sapiens, HTLA-230, 0.25 µM, 24 h, series 0.1–2 µM",53.1%
same,viability at 0.5 µM,"[6]; Homo sapiens, HTLA-230, 24 h",46%
same,viability at 0.5 µM,"[6]; Homo sapiens, HTLA-230, 48 h",41.6%
same,viability at 0.5 µM,"[6]; Homo sapiens, HTLA-230, 72 h",21.7%
same,viability at 5 µM,"[6]; Homo sapiens, HTLA-230, concentrations ≥ 5 µM, 24, 48, 72 h",16 to 18%
same,"Selectivity indexes (SIs), all non-tumoral cells vs both NB cell populations","[6]; after 24 h treatments, MRC-5, Cos-7, HepG2, RBCs vs HTLA-230 and HTLA-ER",2.5–74.6
